The compounds below were run on M. tuberculosis H37Rv_DdnL49P_gfp. Details: in combination with pretomanid, unit inferred; read-out: average EC50 H37Rv_DdnL49P_gfp.
Type: cell-based, Mycobacterium tuberculosis

Going from CC(C)(C)C#Cc1ccc2nc(NC(=O)[C@@H]3C4C=CC(C4)[C@@H]3C(=O)O)sc2c1 (stereo partly drawn) [Example 78, 3-[[6-(3,3-dimethylbut-1-ynyl)-1,3-benzothiazol-2-yl]carbamoyl]bicyclo [2.2.1]hept-5-ene-2-carboxylic acid] to COc1ccc(-c2ccc3nc(NC(=O)[C@@H]4C5C=CC(C5)[C@@H]4C(=O)O)sc3c2)cc1 (stereo partly drawn) [Example 54, 3-[[6-(4-methoxyphenyl)-1,3-benzothiazol-2-yl]carbamoyl]bicyclo[2.2.1]hept-5-ene-2-carboxylic acid], the EC50 rises from 220 nM to 690 nM (3.1-fold).

Compared with O=C(Nc1nc2ccc(-c3ccc(C(F)(F)F)cc3)cc2s1)[C@@H]1C2C=CC(C2)[C@@H]1C(=O)O (stereo partly drawn) [Example 60, 3-[[6-[4-(trifluoromethyl)phenyl]-1,3-benzothiazol-2-yl]carbamoyl]bicyclo[2.2.1]hept-5-ene-2-carboxylic acid], O=C(Nc1nc2ccc(Oc3cc(C(F)(F)F)ccn3)cc2s1)[C@@H]1C2C=CC(C2)[C@@H]1C(=O)O (stereo partly drawn) [Example 27, 3-[[6-[[4-(trifluoromethyl)-2-pyridyl]oxy]-1,3-benzothiazol-2-yl]carbamoyl]bicyclo[2.2.1]hept-5-ene-2-carboxylic acid] is 2.1-fold lower in EC50: 480 nM for the first, 230 nM for the second.

Work on O=C(Nc1nc2ccc(Oc3ccnc(C(F)(F)F)c3)cc2s1)[C@@H]1C2C=CC(C2)[C@@H]1C(=O)O (stereo partly drawn) [Example 32, 3-[[6-[[2-(trifluoromethyl)-4-pyridyl]oxy]-1,3-benzothiazol-2-yl]carbamoyl]bicyclo[2.2.1]hept-5-ene-2-carboxylic acid] yielded an EC50 of 320 nM.

Same assay, conditions: read-out: EC50 H37Rv_DdnL49P_gfp

O=C1[C@@H]2C3C=CC(C3)[C@@H]2C(=O)N1c1nc2ccc(Nc3ccnc(C(F)(F)F)c3)cc2s1 [Example 90, 4-[6-[[2-(trifluoromethyl)-4-pyridyl]amino]-1,3-benzothiazol-2-yl]-4-azatricyclo[5.2.1.02,6]dec-8-ene-3,5-dione] and O=C1[C@@H]2C3C=CC(C3)[C@@H]2C(=O)N1c1nc2ccc(Nc3cccc(C(F)(F)F)n3)cc2s1 [Example 97, 4-[6-[[6-(trifluoromethyl)-2-pyridyl]amino]-1,3-benzothiazol-2-yl]-4-azatricyclo[5.2.1.02,6]dec-8-ene-3,5-dione] cannot be ordered by EC50: under 1000 nM for the first, under 1000 nM for the second.

CCc1ccc2nc(NC(=O)[C@@H]3C4C=CC(C4)[C@@H]3C(=O)O)sc2c1 (stereo partly drawn) [Example 11, 3-[(6-ethyl-1,3-benzothiazol-2-yl)carbamoyl]bicyclo[2.2.1]hept-5-ene-2-carboxylic acid] and O=C(Nc1nc2ccc(I)cc2s1)[C@@H]1C2C=CC(C2)[C@@H]1C(=O)O (stereo partly drawn) [Example 49, 3-[(6-iodo-1,3-benzothiazol-2-yl)carbamoyl]bicyclo[2.2.1]hept-5-ene-2-carboxylic acid] fall in the same range of EC50: 1000 to 5000 nM for the first, 1000 to 5000 nM for the second.

CC(C)(C)C#Cc1ccc2nc(NC(=O)[C@@H]3C4C=CC(C4)[C@@H]3C(=O)O)sc2c1 (stereo partly drawn) [Example 78, 3-[[6-(3,3-dimethylbut-1-ynyl)-1,3-benzothiazol-2-yl]carbamoyl]bicyclo [2.2.1]hept-5-ene-2-carboxylic acid] and CC(C)(C)c1ccc2nc(NC(=O)[C@@H]3C4C=CC(C4)[C@@H]3C(=O)O)sc2c1 (stereo partly drawn) [Example 12, 3-[(6-tert-butyl-1,3-benzothiazol-2-yl)carbamoyl]bicyclo[2.2.1]hept-5-ene-2-carboxylic acid] cannot be ordered by EC50: under 1000 nM for the first, under 1000 nM for the second.

COc1ccc(-c2ccc3nc(NC(=O)[C@@H]4C5C=CC(C5)[C@@H]4C(=O)O)sc3c2)cc1 (stereo partly drawn) [Example 54, 3-[[6-(4-methoxyphenyl)-1,3-benzothiazol-2-yl]carbamoyl]bicyclo[2.2.1]hept-5-ene-2-carboxylic acid] and Cc1ccc(-c2ccc3nc(NC(=O)[C@@H]4C5C=CC(C5)[C@@H]4C(=O)O)sc3c2)cc1 (stereo partly drawn) [Example 53, 3-[[6-(p-tolyl)-1,3-benzothiazol-2-yl]carbamoyl]bicyclo[2.2.1]hept-5-ene-2-carboxylic acid] cannot be ordered by EC50: under 1000 nM for the first, under 1000 nM for the second.

First: O=C(Nc1nc2ccc(C(F)(F)F)cc2s1)[C@@H]1C2C=CC(C2)[C@@H]1C(=O)O (stereo partly drawn) [Example 43, 3-[[6-(trifluoromethyl)-1,3-benzothiazol-2-yl]carbamoyl]bicyclo[2.2.1]hept-5-ene-2-carboxylic acid]
Second: O=C(Nc1nc2ccc(-c3ccc(C(F)(F)F)cc3)cc2s1)[C@@H]1C2C=CC(C2)[C@@H]1C(=O)O (stereo partly drawn) [Example 60, 3-[[6-[4-(trifluoromethyl)phenyl]-1,3-benzothiazol-2-yl]carbamoyl]bicyclo[2.2.1]hept-5-ene-2-carboxylic acid]
The EC50 of the first is higher: 1000 to 5000 nM for the first, under 1000 nM for the second. The second is the more potent here.

First: O=C(Nc1nc2ccc(Oc3ccccc3)cc2s1)[C@@H]1C2C=CC(C2)[C@@H]1C(=O)O (stereo partly drawn) [Example 18, [2-hydroxy-1,1-bis(hydroxymethyl)ethyl]ammonium: (1R,2S,3R,4S)-3-[(6-phenoxy-1,3-benzothiazol-2-yl)carbamoyl]bicyclo[2.2.1]hept-5-ene-2-carboxylate]
Second: O=C(Nc1nc2ccc(-c3ccccc3)cc2s1)[C@@H]1C2C=CC(C2)[C@@H]1C(=O)O (stereo partly drawn) [Example 51]
The EC50 of the first is lower: under 1000 nM for the first, 1000 to 5000 nM for the second.

Compared with O=C1[C@@H]2[C@H](C(=O)N1c1nc3ccc(Oc4ccccc4)cc3s1)[C@@H]1C=C[C@H]2C1 [Example 19, (1R,2S,6R,7S)-4-(6-phenoxy-1,3-benzothiazol-2-yl)-4-azatricyclo[5.2.1.02,6]dec-8-ene-3,5-dione], O=C1[C@@H]2[C@H](C(=O)N1c1nc3ccc(-c4ccc(O)cc4)cc3s1)[C@@H]1C=C[C@H]2C1 [Example 63, (1R,2S,6R,7S)-4-[6-(4-hydroxyphenyl)-1,3-benzothiazol-2-yl]-4-azatricyclo[5.2.1.02,6]dec-8-ene-3,5-dione] is higher in EC50: 1000 to 5000 nM for the first, 5000 to 10000 nM for the second.

O=C(Nc1nc2ccc(Nc3ccc(OC(F)(F)F)cn3)cc2s1)[C@@H]1C2C=CC(C2)[C@@H]1C(=O)O (stereo partly drawn) [Example 93, 3-[[6-[[5-(trifluoromethoxy)-2-pyridyl]amino]-1,3-benzothiazol-2-yl]carbamoyl]bicyclo[2.2.1]hept-5-ene-2-carboxylic acid] and O=C(Nc1nc2ccc(Nc3ccc(F)cn3)cc2s1)[C@@H]1C2C=CC(C2)[C@@H]1C(=O)O (stereo partly drawn) [Example 86, 3-[[6-[(5-fluoro-2-pyridyl)amino]-1,3-benzothiazol-2-yl]carbamoyl]bicyclo[2.2.1]hept-5-ene-2-carboxylic acid] cannot be ordered by EC50: under 1000 nM for the first, under 1000 nM for the second.

C#CCOc1ccc(-c2ccc3nc(N4C(=O)[C@@H]5[C@H](C4=O)[C@@H]4C=C[C@H]5C4)sc3c2)cc1 [Example 71, (1R,2S,6R,7S)-4-[6-(4-prop-2-ynoxyphenyl)-1,3-benzothiazol-2-yl]-4-azatricyclo[5.2.1.02,6]dec-8-ene-3,5-dione] and O=C1[C@@H]2[C@H](C(=O)N1c1nc3ccc(-c4ccc(C(F)(F)F)cc4)cc3s1)[C@@H]1C=C[C@H]2C1 [Example 61, (1R,2S,6R,7S)-4-[6-[4-(trifluoromethyl)phenyl]-1,3-benzothiazol-2-yl]-4-azatricyclo[5.2.1.02,6]dec-8-ene-3,5-dione] cannot be ordered by EC50: under 1000 nM for the first, under 1000 nM for the second.

First: O=C(Nc1nc2ccc(-c3ccncc3)cc2s1)[C@@H]1C2C=CC(C2)[C@@H]1C(=O)O (stereo partly drawn) [Example 64, 3-[[6-(4-pyridyl)-1,3-benzothiazol-2-yl]carbamoyl]bicyclo[2.2.1]hept-5-ene-2-carboxylic acid]
Second: O=C(Nc1nc2ccc(-c3ccoc3)cc2s1)[C@@H]1C2C=CC(C2)[C@@H]1C(=O)O (stereo partly drawn) [Example 69, 3-[[6-(3-furyl)-1,3-benzothiazol-2-yl]carbamoyl]bicyclo[2.2.1]hept-5-ene-2-carboxylic acid]
The EC50 of the first is higher: 5000 to 10000 nM for the first, under 1000 nM for the second. The second is the more potent here.

First: O=C(Nc1nc2ccc(Oc3ccccc3)cc2s1)[C@@H]1C2C=CC(C2)[C@@H]1C(=O)O (stereo partly drawn) [Example 17, 3-[(6-phenoxy-1,3-benzothiazol-2-yl)carbamoyl]bicyclo[2.2.1]hept-5-ene-2-carboxylic acid]
Second: O=C(Nc1nc2ccc(Oc3ccc(C(F)(F)F)cc3)cc2s1)[C@@H]1C2C=CC(C2)[C@@H]1C(=O)O (stereo partly drawn) [Example 22, 3-[[6-[4-(trifluoromethyl)phenoxy]-1,3-benzothiazol-2-yl]carbamoyl]bicyclo[2.2.1]hept-5-ene-2-carboxylic acid]
The EC50 of the first is lower: under 1000 nM for the first, 1000 to 5000 nM for the second.

C#Cc1ccc2nc(N3C(=O)[C@@H]4[C@H](C3=O)[C@@H]3C=C[C@H]4C3)sc2c1 [Example 72, (1R,2S,6R,7S)-4-(6-ethynyl-1,3-benzothiazol-2-yl)-4-azatricyclo[5.2.1.02,6]dec-8-ene-3,5-dione] and O=C1[C@@H]2[C@H](C(=O)N1c1nc3ccc(-c4ccsc4)cc3s1)[C@@H]1C=C[C@H]2C1 [Example 68, (1R,2S,6R,7S)-4-[6-(3-thienyl)-1,3-benzothiazol-2-yl]-4-azatricyclo[5.2.1.02,6]dec-8-ene-3,5-dione] fall in the same range of EC50: 1000 to 5000 nM for the first, 1000 to 5000 nM for the second.

Compared with O=C(Nc1nc2cc3c(cc2s1)OCCO3)[C@@H]1C2C=CC(C2)[C@@H]1C(=O)O (stereo partly drawn) [Example 10, 3-(6,7-dihydro-[1,4]dioxino[2,3-f][1,3]benzothiazol-2-ylcarbamoyl) bicyclo[2.2.1]hept-5-ene-2-carboxylic acid], Cc1ccc2sc(NC(=O)[C@@H]3C4C=CC(C4)[C@@H]3C(=O)O)nc2c1C (stereo partly drawn) [Example 15, 3-[(4,5-dimethyl-1,3-benzothiazol-2-yl)carbamoyl]bicyclo[2.2.1]hept-5-ene-2-carboxylic acid] is lower in EC50: 10000 to 20000 nM for the first, 1000 to 5000 nM for the second.

Compared with O=C1[C@@H]2C3C=CC(C3)[C@@H]2C(=O)N1c1nc2ccc(Nc3ccc(F)cn3)cc2s1 [Example 87, 4-[6-[(5-fluoro-2-pyridyl)amino]-1,3-benzothiazol-2-yl]-4-azatricyclo[5.2.1.02,6]dec-8-ene-3,5-dione], O=C1[C@@H]2[C@H](C(=O)N1c1nc3ccc(-c4ccoc4)cc3s1)[C@@H]1C=C[C@H]2C1 [Example 70, (1R,2S,6R,7S)-4-[6-(3-furyl)-1,3-benzothiazol-2-yl]-4-azatricyclo[5.2.1.02,6]dec-8-ene-3,5-dione] is higher in EC50: under 1000 nM for the first, 1000 to 5000 nM for the second. The first is the more potent here.

Compared with O=C(Nc1nc2ccc(-c3cccc(C(F)(F)F)c3)cc2s1)[C@@H]1C2C=CC(C2)[C@@H]1C(=O)O (stereo partly drawn) [Example 59, 3-[[6-[3-(trifluoromethyl)phenyl]-1,3-benzothiazol-2-yl]carbamoyl]bicyclo[2.2.1]hept-5-ene-2-carboxylic acid], O=C(Nc1nc2ccc(Oc3cc(C(F)(F)F)ccn3)cc2s1)[C@@H]1C2C=CC(C2)[C@@H]1C(=O)O (stereo partly drawn) [Example 27, 3-[[6-[[4-(trifluoromethyl)-2-pyridyl]oxy]-1,3-benzothiazol-2-yl]carbamoyl]bicyclo[2.2.1]hept-5-ene-2-carboxylic acid] is lower in EC50: 1000 to 5000 nM for the first, under 1000 nM for the second. The second is the more potent here.

O=C(Nc1nc2ccc(-c3ccc(N4CCCCC4)cc3)cc2s1)[C@@H]1C2C=CC(C2)[C@@H]1C(=O)O (stereo partly drawn) [Example 100] and Cc1ccnc(Oc2ccc3nc(NC(=O)[C@@H]4C5C=CC(C5)[C@@H]4C(=O)O)sc3c2)c1 (stereo partly drawn) [Example 29, 3-[[6-[(4-methyl-2-pyridyl)oxy]-1,3-benzothiazol-2-yl]carbamoyl]bicyclo[2.2.1]hept-5-ene-2-carboxylic acid] cannot be ordered by EC50: under 1000 nM for the first, under 1000 nM for the second.

Compared with C#CCOc1cccc2sc(NC(=O)[C@@H]3C4C=CC(C4)[C@@H]3C(=O)O)nc12 (stereo partly drawn) [Example 75, 3-[(4-prop-2-ynoxy-1,3-benzothiazol-2-yl)carbamoyl]bicyclo[2.2.1]hept-5-ene-2-carboxylic acid], O=C(Nc1nc2ccc(Oc3ccnc(C(F)(F)F)c3)cc2s1)[C@@H]1C2C=CC(C2)[C@@H]1C(=O)O (stereo partly drawn) [Example 32, 3-[[6-[[2-(trifluoromethyl)-4-pyridyl]oxy]-1,3-benzothiazol-2-yl]carbamoyl]bicyclo[2.2.1]hept-5-ene-2-carboxylic acid] is lower in EC50: 1000 to 5000 nM for the first, under 1000 nM for the second.
